From US20260365682A1, “MODULATORS OF TNF-ALPHA ACTIVITY” (Forward Therapeutics, Inc., priority 2022, published 2026) come the findings set out here.

Molecules are shown by their SMILES. Read-outs that look alike come from different tables or passages of the source.

This experiment addresses T1, TNF-α (Homo sapiens, UniProt P01375).
T1 construct: purchased R&D 210-TA-020/CF
Description: TNF-α Induced HEK Blue Cellular Assay (secreted alkaline phosphatase expression, QUANTI-Blue). The note with it: HEK Blue TNFα reporter cells, TNF-α 100 μg/ml, 24 hrs at 37° C., inhibition of secreted alkaline phosphatase. It is filed as cell-based. The procedure, abridged: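 Compound was serially diluted from […] to 0.5 nM final, then incubated with 10,000 HEK Blue TNFα reporter cells per well and […] TNF-α for 24 h at 37° C. SEAP output was read by QUANTI-Blue absorbance at 620 nm. Inhibition was background-corrected against DMSO controls with and without stimulation, and IC50 was fitted with a 4-parameter logistic equation.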

T1 sequence (P01375 77-233 limits assumed): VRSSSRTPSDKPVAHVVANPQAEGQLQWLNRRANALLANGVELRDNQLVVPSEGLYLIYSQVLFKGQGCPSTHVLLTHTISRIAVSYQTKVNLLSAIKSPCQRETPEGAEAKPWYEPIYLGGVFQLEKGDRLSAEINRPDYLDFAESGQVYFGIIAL

The IC50 is the concentration needed to halve the response being measured. On to `[2H]C([2H])([2H])N1C(=O)c2cccc(OC(F)F)c2[C@H]2C[C@@H]1c1nc3ccc(C#CCCC#N)cc3n12` [Example 87, 5-((7R,14R)-1-(difluoromethoxy)-6-(methyl-d3)-5-oxo-5,6,7,14-tetrahydro-7,14-methanobenzo[f]benzo[4,5]imidazo[1,2-a][1,4]diazocin-11-yl)pent-4-ynenitrile], for which the IC50 (read-out: IC50 value) is less than 100 nM. `[2H]C([2H])([2H])N1C(=O)c2cccc(OC(F)F)c2[C@H]2C[C@@H]1c1nc3ccc(C#CCCC)cc3n12` [Example 88, (7R,14R)-1-(difluoromethoxy)-6-(methyl-d3)-11-(pent-1-yn-1-yl)-6,7-dihydro-7,14-methanobenzo[f]benzo[4,5]imidazo[1,2-a][1,4]diazocin-5(14H)-one]: the IC50 (IC50 value) is less than 100 nM. Same read-out and setting: for `[2H]C([2H])([2H])N1C(=O)c2cccc(OC(F)F)c2[C@H]2C[C@@H]1c1nc3ccc(C#CC(=O)NCC(F)(F)F)cc3n12` [Example 89, 3-((7R,14R)-1-(difluoromethoxy)-6-(methyl-d3)-5-oxo-5,6,7,14-tetrahydro-7,14-methanobenzo[f]benzo[4,5]imidazo[1,2-a][1,4]diazocin-11-yl)-N-(2,2,2-trifluoroethyl)propiolamide] the value was 100 to 1000 nM. Take `[2H]C([2H])([2H])N1C(=O)c2cccc(OC(F)F)c2[C@H]2C[C@@H]1c1nc3ccc(C#CC[Si](C)(C)C)cc3n12` [Example 90, (7R,14R)-1-(difluoromethoxy)-6-(methyl-d3)-11-(3-(trimethylsilyl)prop-1-yn-1-yl)-6,7-dihydro-7,14-methanobenzo[f]benzo[4,5]imidazo[1,2-a][1,4]diazocin-5(14H)-one]: the IC50 (read-out: IC50 value) was less than 100 nM.

For the molecule `[2H]C([2H])([2H])N1C(=O)c2cccc(OC(F)F)c2[C@H]2C[C@@H]1c1nc3ccc(C#CCCCC)cc3n12` [Example 91, (7R,14R)-1-(difluoromethoxy)-11-(hex-1-yn-1-yl)-6-(methyl-d3)-6,7-dihydro-7,14-methanobenzo[f]benzo[4,5]imidazo[1,2-a][1,4]diazocin-5(14H)-one], the IC50 (read-out: IC50 value) was less than 100 nM.

Consider `[2H]C([2H])([2H])N1C(=O)c2cccc(OC(F)F)c2[C@H]2C[C@@H]1c1nc3ccc(C#CCCCCO)cc3n12` [Example 92, (7R,14R)-1-(difluoromethoxy)-11-(6-hydroxyhex-1-yn-1-yl)-6-(methyl-d3)-6,7-dihydro-7,14-methanobenzo[f]benzo[4,5]imidazo[1,2-a][1,4]diazocin-5(14H)-one], for which the IC50 (read-out: IC50 value) is less than 100 nM. `[2H]C([2H])([2H])N1C(=O)c2cccc(OC(F)F)c2[C@H]2C[C@@H]1c1nc3ccc(C#CCCC(C)(C)O)cc3n12` [Example 93, (7R,14R)-1-(difluoromethoxy)-11-(5-hydroxy-5-methylhex-1-yn-1-yl)-6-(methyl-d3)-6,7-dihydro-7,14-methanobenzo[f]benzo[4,5]imidazo[1,2-a][1,4]diazocin-5(14H)-one]: under “read-out: IC50 value”, the IC50 is less than 100 nM. Still for that read-out and setting: for `[2H]C([2H])([2H])N1C(=O)c2cccc(OC(F)F)c2[C@H]2C[C@@H]1c1nc3ccc(C#CCCC(C)C)cc3n12` [Example 94, (7R,14R)-1-(difluoromethoxy)-6-(methyl-d3)-11-(5-methylhex-1-yn-1-yl)-6,7-dihydro-7,14-methanobenzo[f]benzo[4,5]imidazo[1,2-a][1,4]diazocin-5(14H)-one] the value was less than 100 nM. For the molecule `[2H]C([2H])([2H])N1C(=O)c2cccc(OC(F)F)c2[C@H]2C[C@@H]1c1nc3ccc(C#CC(=O)NC(C)C)cc3n12` [Example 95, 3-((7R,14R)-1-(difluoromethoxy)-6-(methyl-d3)-5-oxo-5,6,7,14-tetrahydro-7,14-methanobenzo[f]benzo[4,5]imidazo[1,2-a][1,4]diazocin-11-yl)-N-isopropylpropiolamide], the IC50 (read-out: IC50 value) is less than 100 nM. With `[2H]C([2H])([2H])N1C(=O)c2cccc(OC(F)F)c2[C@H]2C[C@@H]1c1nc3ccc(C#CC4(C)COC4)cc3n12` [Example 96, (7R,14R)-1-(difluoromethoxy)-6-(methyl-d3)-11-((3-methyloxetan-3-yl)ethynyl)-6,7-dihydro-7,14-methanobenzo[f]benzo[4,5]imidazo[1,2-a][1,4]diazocin-5(14H)-one], the IC50 (read-out: IC50 value) is less than 100 nM. `[2H]C([2H])([2H])N1C(=O)c2cccc(OC(F)F)c2[C@H]2C[C@@H]1c1nc3ccc(C#CC4(O)CCOCC4)cc3n12` [Example 97, (7R,14R)-1-(difluoromethoxy)-11-((4-hydroxytetrahydro-2H-pyran-4-yl)ethynyl)-6-(methyl-d3)-6,7-dihydro-7,14-methanobenzo[f]benzo[4,5]imidazo[1,2-a][1,4]diazocin-5(14H)-one]: the IC50 (read-out: IC50 value) was less than 100 nM. With `[2H]C([2H])([2H])N1C(=O)c2cccc(OC(F)F)c2[C@H]2C[C@@H]1c1nc3ccc(C#CCCCC(=O)O)cc3n12` [Example 98, 6-((7R,14R)-1-(difluoromethoxy)-6-(methyl-d3)-5-oxo-5,6,7,14-tetrahydro-7,14-methanobenzo[f]benzo[4,5]imidazo[1,2-a][1,4]diazocin-11-yl)hex-5-ynoic Acid], the IC50 (read-out: IC50 value) was less than 100 nM. For `[2H]C([2H])([2H])N1C(=O)c2cccc(OC(F)F)c2[C@H]2C[C@@H]1c1nc3ccc(CCCCO)cc3n12` [Example 99, (7R,14R)-1-(difluoromethoxy)-11-(4-hydroxybutyl)-6-(methyl-d3)-6,7-dihydro-7,14-methanobenzo[f]benzo[4,5]imidazo[1,2-a][1,4]diazocin-5(14H)-one], the IC50 (read-out: IC50 value) was less than 100 nM. Still for that read-out and setting: for `[2H]C([2H])([2H])N1C(=O)c2cccc(OC(F)F)c2[C@H]2C[C@@H]1c1nc3ccc(C#Cc4cnc(P(C)(C)=O)nc4)cc3n12` [Example 100, (7R,14R)-1-(difluoromethoxy)-11-((2-(dimethylphosphoryl)pyrimidin-5-yl)ethynyl)-6-(methyl-d3)-6,7-dihydro-7,14-methanobenzo[f]benzo[4,5]imidazo[1,2-a][1,4]diazocin-5(14H)-one] the value was less than 100 nM. Regarding `[2H]C([2H])([2H])N1C(=O)c2cccc(OC(F)F)c2[C@H]2C[C@@H]1c1nc3ccc(C#CCCN4CCOCC4)cc3n12` [Example 101, (7R,14R)-1-(difluoromethoxy)-6-(methyl-d3)-11-(4-morpholinobut-1-yn-1-yl)-6,7-dihydro-7,14-methanobenzo[f]benzo[4,5]imidazo[1,2-a][1,4]diazocin-5(14H)-one], the IC50 (read-out: IC50 value) was less than 100 nM. On to `[2H]C([2H])([2H])N1C(=O)c2cccc(OC(F)F)c2[C@H]2C[C@@H]1c1nc3ccc(C#CC4CCOC4)cc3n12` (stereo partly drawn) [Example 102, (7R,14R)-1-(difluoromethoxy)-6-(methyl-d3)-11-((tetrahydrofuran-3-yl)ethynyl)-6,7-dihydro-7,14-methanobenzo[f]benzo[4,5]imidazo[1,2-a][1,4]diazocin-5(14H)-one], for which, where the note is “read-out: IC50 value”, the IC50 is less than 100 nM. As to `[2H]C([2H])([2H])N1C(=O)c2cccc(OC(F)F)c2[C@H]2C[C@@H]1c1nc3ccc(C#CCCOC(F)F)cc3n12` [Example 103, (7R,14R)-1-(difluoromethoxy)-11-(4-(difluoromethoxy)but-1-yn-1-yl)-6-(methyl-d3)-6,7-dihydro-7,14-methanobenzo[f]benzo[4,5]imidazo[1,2-a][1,4]diazocin-5(14H)-one], the IC50 (read-out: IC50 value) is less than 100 nM. Take `[2H]C([2H])([2H])N1C(=O)c2cccc(OC(F)F)c2[C@H]2C[C@@H]1c1nc3ccc(C#CCCC(=O)O)cc3n12` [Example 104, 5-((7R,14R)-1-(difluoromethoxy)-6-(methyl-d3)-5-oxo-5,6,7,14-tetrahydro-7,14-methanobenzo[f]benzo[4,5]imidazo[1,2-a][1,4]diazocin-11-yl)pent-4-ynoic Acid]: the IC50 (read-out: IC50 value) fell in the range of 10000 to 30000 nM. Turning to `[2H]C([2H])([2H])N1C(=O)c2cccc(OC(F)F)c2[C@H]2C[C@@H]1c1nc3ccc(C#CCC4CC4)cc3n12` [Example 105, (7R,14R)-11-(3-cyclopropylprop-1-yn-1-yl)-1-(difluoromethoxy)-6-(methyl-d3)-6,7-dihydro-7,14-methanobenzo[f]benzo[4,5]imidazo[1,2-a][1,4]diazocin-5(14H)-one], where the note is “read-out: IC50 value”, the IC50 is less than 100 nM. In the case of `[2H]C([2H])([2H])N1C(=O)c2cccc(OC(F)F)c2[C@H]2C[C@@H]1c1nc3ccc(C#Cc4ccc(P(C)(C)=O)cc4)cc3n12` [Example 106, (7R,14R)-1-(difluoromethoxy)-11-((4-(dimethylphosphoryl)phenyl)ethynyl)-6-(methyl-d3)-6,7-dihydro-7,14-methanobenzo[f]benzo[4,5]imidazo[1,2-a][1,4]diazocin-5(14H)-one], for the setting “read-out: IC50 value”, the IC50 was less than 100 nM. On the same count and under the same terms, for `[2H]C([2H])([2H])N1C(=O)c2cccc(OC(F)F)c2[C@H]2C[C@@H]1c1nc3ccc(C#Cc4ccc(P(C)(C)=O)s4)cc3n12` [Example 107, (7R,14R)-1-(difluoromethoxy)-11-((5-(dimethylphosphoryl)thiophen-2-yl)ethynyl)-6-(methyl-d3)-6,7-dihydro-7,14-methanobenzo[f]benzo[4,5]imidazo[1,2-a][1,4]diazocin-5(14H)-one] the value was less than 100 nM. On to `[2H]C([2H])([2H])N1C(=O)c2cccc(OC(F)F)c2[C@H]2C[C@@H]1c1nc3ccc(C#CCC(F)(F)F)cc3n12` [Example 108, (7R,14R)-1-(difluoromethoxy)-6-(methyl-d3)-11-(4,4,4-trifluorobut-1-yn-1-yl)-6,7-dihydro-7,14-methanobenzo[f]benzo[4,5]imidazo[1,2-a][1,4]diazocin-5(14H)-one], for which, where the note is “read-out: IC50 value”, the IC50 was less than 100 nM. As to `[2H]C([2H])([2H])N1C(=O)c2cccc(OC(F)F)c2[C@H]2C[C@@H]1c1nc3c(F)cc(C#CC)cc3n12` [Example 109, (7R,14R)-1-(difluoromethoxy)-9-fluoro-6-(methyl-d3)-11-(prop-1-yn-1-yl)-6,7-dihydro-7,14-methanobenzo[f]benzo[4,5]imidazo[1,2-a][1,4]diazocin-5(14H)-one], the IC50 (read-out: IC50 value) fell in the range of 100 to 1000 nM.
